SMILES strings stand for the structures. pEC50: −log10 of the molar value. Where only a bound is given, the exact number is not on record here.

Type in all cases: functional, cell-based
Experiment [1] has as its target Putative P2Y purinoceptor 10 (Mus musculus) (UniProt Q8BFU7). In words: Agonist activity at mouse LPS2/P2Y10 transfected in HEK293-A cells co-transfected with AP-TGFalpha assessed as AP-TGFalpha release by TGFalpha shedding assay relative to LysoPS. The following applies: filed as agonist.
The target of experiment [2] is Putative P2Y purinoceptor 10 (Mus musculus, UniProt Q8BFU7). In words: Agonist activity at mouse LPS2/P2Y10 transfected in HEK293-A cells co-transfected with AP-TGFalpha assessed as AP-TGFalpha release by TGFalpha shedding assay. The following applies: for pEC50: read-out: EC50; for EC50: read-out: pEC50 (converted).
Putative P2Y purinoceptor 10 (Mus musculus, UniProt Q8BFU7), sequence (Q8BFU7 whole entry): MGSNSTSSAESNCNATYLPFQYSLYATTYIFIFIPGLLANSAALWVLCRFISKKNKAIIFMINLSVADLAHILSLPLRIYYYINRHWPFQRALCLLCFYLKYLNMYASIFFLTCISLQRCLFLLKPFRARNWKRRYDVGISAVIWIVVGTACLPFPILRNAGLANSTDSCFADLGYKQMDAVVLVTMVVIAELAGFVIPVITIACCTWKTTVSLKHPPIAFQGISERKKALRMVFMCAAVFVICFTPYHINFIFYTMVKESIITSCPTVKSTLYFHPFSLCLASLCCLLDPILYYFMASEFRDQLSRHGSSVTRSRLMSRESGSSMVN
In experiment [3] the target is Probable G-protein coupled receptor 34 (Mus musculus, UniProt Q9R1K6). Put plainly: Agonist activity at mouse LPS1/GPR34 transfected in HEK293-A cells co-transfected with AP-TGFalpha assessed as AP-TGFalpha release by TGFalpha shedding assay.
Probable G-protein coupled receptor 34, sequence (Q9R1K6 whole entry): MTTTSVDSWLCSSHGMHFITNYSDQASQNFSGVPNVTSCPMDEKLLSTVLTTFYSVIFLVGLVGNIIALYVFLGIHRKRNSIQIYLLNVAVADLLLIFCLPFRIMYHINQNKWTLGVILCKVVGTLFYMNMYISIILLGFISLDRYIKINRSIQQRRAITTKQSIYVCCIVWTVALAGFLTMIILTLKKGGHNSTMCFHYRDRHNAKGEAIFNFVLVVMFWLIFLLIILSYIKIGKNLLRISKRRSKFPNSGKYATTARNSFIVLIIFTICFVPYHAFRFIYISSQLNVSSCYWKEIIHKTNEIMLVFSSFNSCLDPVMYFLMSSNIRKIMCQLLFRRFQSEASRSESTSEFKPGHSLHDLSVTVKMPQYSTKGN
The target in experiment [4] is T1, Putative P2Y purinoceptor 10 (Homo sapiens, UniProt O00398). In words: Agonist activity at human LPS2/P2Y10 transfected in HEK293-A cells co-transfected with AP-TGFalpha assessed as AP-TGFalpha release by TGFalpha shedding assay. Conditions: for pEC50: read-out: EC50.
T1 sequence (O00398 whole entry): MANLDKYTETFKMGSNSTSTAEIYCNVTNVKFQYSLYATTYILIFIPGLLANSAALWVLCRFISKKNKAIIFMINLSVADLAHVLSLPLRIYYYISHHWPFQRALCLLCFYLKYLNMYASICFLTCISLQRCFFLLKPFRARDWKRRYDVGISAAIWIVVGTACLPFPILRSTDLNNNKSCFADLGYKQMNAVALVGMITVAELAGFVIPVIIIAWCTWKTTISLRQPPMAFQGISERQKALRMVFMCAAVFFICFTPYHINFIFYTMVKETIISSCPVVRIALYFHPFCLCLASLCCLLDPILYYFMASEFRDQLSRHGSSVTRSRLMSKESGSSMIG
Experiment [5] addresses T1, Putative P2Y purinoceptor 10. Put plainly: Agonist activity at human LPS2/P2Y10 transfected in HEK293-A cells co-transfected with AP-TGFalpha assessed as AP-TGFalpha release by TGFalpha shedding assay relative to LysopPS. The following applies: filed as agonist.

Putative P2Y purinoceptor 10 (Mus musculus), sequence (Q8BFU7 whole entry): as the sequence (Q8BFU7 whole entry) above

As for `CCc1ccccc1Oc1ccccc1CCC(=O)OCCCOP(=O)(O)OC[C@H](N)C(=O)O`, the maximum response (Emax) (commonly the greatest response seen or fitted, relative to the assay's reference) in experiment [1] came out at 78%. In experiment [2], the negative logarithm of the EC50 (pEC50) – broadly, the negative decadic logarithm of the EC50, by convention in mol/L – is 6.77.

With `CCCCCCCC/C=C\CCCCCCCC(=O)OCCCOP(=O)(O)OC[C@H](N)C(N)=O`, the figures for the negative-log EC50 (pEC50) in experiment [3] and in experiment [2] were < 5.52 and 7.62, respectively. The Emax in experiment [1] was 112%.

On to `N[C@@H](COP(=O)(O)OCCCCOC(=O)CC(=O)CC(=O)Cc1ccccc1Oc1ccc(-c2ccccc2)cc1)C(=O)O`, for which the maximal effect (Emax) in experiment [1] came out at 118%. Also, the pEC50 in experiment [2] was 7.51.

As for `CC(C)(C)c1cc(Oc2ccccc2CCC(=O)OCCCOP(=O)(O)OC[C@H](N)C(=O)O)cc(C(C)(C)C)c1`, in experiment [1], the maximum response (Emax) amounted to 125%. In addition, the pEC50 in experiment [2] was 6.70.

`Cc1cc(C)cc(-c2cccc(COc3ccccc3CCC(=O)OCCCOP(=O)(O)OC[C@H](N)C(=O)O)c2)c1`: the values for the pEC50 in experiment [3] and in experiment [2] were < 5.52 and 7.34, respectively. In addition, the Emax in experiment [1] worked out at 114%.

Consider `Cc1cccc(Oc2ccccc2CCC(=O)OCCCOP(=O)(O)OC[C@H](N)C(=O)O)c1`, for which the maximum response (Emax) in experiment [1] stood at 78%. Also, the pEC50 in experiment [2] is 6.68.

For the molecule `N[C@@H](COP(=O)(O)OCCCOC(=O)CCc1ccccc1Oc1ccc(-c2ccccc2-c2ccccc2)cc1)C(=O)O`, the maximal response (Emax) came to 87% in experiment [1] and 113% in experiment [5]. The pEC50 was 7.00 in experiment [4] and 8.17 in experiment [2].

Take `N[C@@H](COP(=O)(O)OCCCCCOC(=O)CC(=O)Cc1ccccc1Oc1ccc(-c2ccccc2)cc1)C(=O)O`: the maximal effect (Emax) in experiment [1] came to 105%. For the same molecule, the pEC50 in experiment [2] was 6.62.

On to `N[C@@H](COP(=O)(O)OCCCOC(=O)CCc1ccccc1Oc1ccc(-c2ccc(C34C[C@H]5C[C@@H](C3)C[C@@H](C4)C5)cc2)cc1)C(=O)O`, for which the Emax in experiment [1] turned out to be 68%. In addition, the pEC50 in experiment [2] is 8.28.

Consider `Cc1cc(C)cc(Oc2ccccc2CCC(=O)OCCCOP(=O)(O)OC[C@H](N)C(=O)O)c1`, for which, in experiment [1], the Emax was 114%. The negative logarithm of the EC50 (pEC50) in experiment [2] was 6.89.

Turning to `CC(C)(C)c1cccc(-c2ccc(Oc3ccccc3CCC(=O)OCCCOP(=O)(O)OC[C@H](N)C(=O)O)cc2)c1`, the Emax in experiment [1] came to 115%. For the same molecule, in experiment [2], the pEC50 is 7.85.

`N[C@@H](COP(=O)(O)OCCCOC(=O)CCc1ccccc1Oc1cc(-c2ccccc2)cc(-c2ccccc2)c1)C(=O)O`: the maximal effect (Emax) in experiment [1] was determined as 121%; in experiment [5], 152%. Besides, the results for the pEC50 in experiment [4] and in experiment [2] were 6.92 and 7.64, respectively.

With `CCc1ccccc1-c1ccc(Oc2ccccc2CCC(=O)OCCCOP(=O)(O)OC[C@H](N)C(=O)O)cc1`, in experiment [1], the maximal response (Emax) came out at 92%. Further, the pEC50 in experiment [2] is 7.74.

In the case of `N[C@@H](COP(=O)(O)OCCOC(=O)CC(=O)CC(=O)Cc1ccccc1Oc1ccc(-c2ccccc2)cc1)C(=O)O`, the maximal response (Emax) in experiment [1] turned out to be 112%. Further, the pEC50 in experiment [2] is 6.70.

With `CC(C)(C)c1cccc(Oc2ccccc2CCC(=O)OCCCOP(=O)(O)OC[C@H](N)C(=O)O)c1`, the Emax in experiment [1] came out at 113%. Besides, in experiment [2], the negative logarithm of the EC50 (pEC50) is 6.40.

With `CC(C)(C)c1ccc(-c2ccc(Oc3ccccc3CCC(=O)OCCCOP(=O)(O)OC[C@H](N)C(=O)O)cc2)cc1`, in experiment [1], the Emax amounted to 78%. Further, the pEC50 in experiment [2] was 8.52.

Consider `Cc1ccccc1Oc1ccccc1CCC(=O)OCCCOP(=O)(O)OC[C@H](N)C(=O)O`, for which the Emax in experiment [1] was 70%. Besides, in experiment [2], the pEC50 is 6.85.

Consider `N[C@@H](COP(=O)(O)OCCOC(=O)CC(=O)Cc1ccccc1Oc1ccc(-c2ccccc2)cc1)C(=O)O`, for which, in experiment [2], the negative logarithm of the EC50 (pEC50) was < 8.52 and the EC50 was 6030 nM.

Turning to `CCc1ccc(-c2ccc(Oc3ccccc3CCC(=O)OCCCOP(=O)(O)OC[C@H](N)C(=O)O)cc2)cc1`, the Emax in experiment [1] came out at 98%. The negative logarithm of the EC50 (pEC50) in experiment [2] is 8.59.

With `N#Cc1ccc(Oc2ccccc2CCC(=O)OCCCOP(=O)(O)OC[C@H](N)C(=O)O)cc1`, in experiment [2], the pEC50 was < 8.52 and the EC50 is < 3160 nM.

In the case of `Nc1ccc(Oc2ccccc2CCC(=O)OCCCOP(=O)(O)OC[C@H](N)C(=O)O)cc1`, in experiment [1], the maximum response (Emax) was found to be 59%. Further, in experiment [2], the pEC50 is 8.80 and the EC50 was 1580 nM.

For the molecule `CCc1ccc(Oc2ccccc2CCC(=O)OCCCOP(=O)(O)OC[C@H](N)C(=O)O)cc1`, the maximal response (Emax) in experiment [1] was 72%. Besides, the pEC50 in experiment [2] is 6.09.

With `Cc1cccc(COc2ccccc2CCC(=O)OCCCOP(=O)(O)OC[C@H](N)C(=O)O)c1`, the Emax in experiment [1] worked out at 114%. Further, the pEC50 in experiment [2] was 6.47.

In the case of `N[C@@H](COP(=O)(O)OCCCOC(=O)CC(=O)Cc1ccccc1Oc1ccc(-c2ccccc2)cc1)C(=O)O`, in experiment [1], the maximal effect (Emax) amounted to 99%. Further, in experiment [2], the negative logarithm of the EC50 (pEC50) is 8.96 and the EC50 is 1070 nM.

`Cc1ccc(-c2ccc(Oc3ccccc3CCC(=O)OCCCOP(=O)(O)OC[C@H](N)C(=O)O)cc2)cc1`: the maximum response (Emax) in experiment [1] came out at 108%. Further, the negative logarithm of the EC50 (pEC50) in experiment [2] is 7.96.

For the molecule `N[C@@H](COP(=O)(O)OCCCOC(=O)CCc1ccccc1Oc1cccc(-c2ccccc2)c1)C(=O)O`, the Emax came to 109% in experiment [1] and 133% in experiment [5]. For the same molecule, the pEC50 is 7.21 in experiment [4] and 7.54 in experiment [2].

Take `CCCCCCCCCCCOc1ccccc1CCC(=O)OCC(F)(F)COP(=O)(O)OC[C@H](N)C(=O)O`: the Emax in experiment [1] came out at 94%. Further, in experiment [2], the pEC50 is 8.82.

In the case of `CC(C)(C)c1cc(-c2cccc(COc3ccccc3CCC(=O)OCCCOP(=O)(O)OC[C@H](N)C(=O)O)c2)cc(C(C)(C)C)c1`, the negative logarithm of the EC50 (pEC50) in experiment [3] is < 5.52; in experiment [2], 7.55. For the same molecule, the maximal response (Emax) in experiment [1] is 109%.

Turning to `N[C@@H](COP(=O)(O)OCCCOC(=O)CCc1ccccc1Oc1ccc(-c2ccc(-c3ccccc3)cc2)cc1)C(=O)O`, the Emax stood at 70% in experiment [1] and 89% in experiment [5]. Besides, the negative-log EC50 (pEC50) is 8.10 in experiment [4] and 8.43 in experiment [2].

Take `N[C@@H](COP(=O)(O)OCCCOC(=O)CCc1ccccc1Oc1ccc(O)cc1)C(=O)O`: in experiment [2], the pEC50 is < 8.52 and the EC50 is < 3160 nM.

As to `N[C@@H](COP(=O)(O)OCCCCCOC(=O)CC(=O)CC(=O)Cc1ccccc1Oc1ccc(-c2ccccc2)cc1)C(=O)O`, in experiment [1], the Emax is 96%. Also, in experiment [2], the negative-log EC50 (pEC50) is 7.00.

`N[C@@H](COP(=O)(O)OCCCOC(=O)CCc1ccccc1Oc1ccccc1-c1ccccc1)C(=O)O`: in experiment [1], the maximal effect (Emax) worked out at 105%. The values for the pEC50 in experiment [4] and in experiment [2] were < 8.52 and 6.05, respectively. Besides, in experiment [4] (read-out: pEC50 (converted)), the EC50 was 5130 nM.

For `N[C@@H](COP(=O)(O)OCCCCOC(=O)CC(=O)Cc1ccccc1Oc1ccc(-c2ccccc2)cc1)C(=O)O`, the maximal response (Emax) in experiment [1] was found to be 98%. In addition, the negative-log EC50 (pEC50) in experiment [2] is 6.85.

For the molecule `CCCCCCOc1cccc(COc2ccccc2CCC(=O)OCCCOP(=O)(O)OC[C@H](N)C(N)=O)c1`, the negative-log EC50 (pEC50) in experiment [3] was < 5.52; in experiment [2] it was 8.15. The Emax in experiment [1] was 113%.

Consider `N[C@@H](COP(=O)(O)OCCCOC(=O)CCc1ccccc1OCc1cccc(-c2ccccc2)c1)C(=O)O`, for which the pEC50 in experiment [3] is < 5.52; in experiment [2], 8.24. In addition, the Emax in experiment [1] worked out at 131%.

The record behind these values is ChEMBL document CHEMBL5360551, “Exploration of LPS2 agonist binding modes using the combination of a new hydrophobic scaffold and homology modeling” (Eur J Med Chem, 2023).
